From patent publication US8680113B2, “BMI-1 protein expression modulators” (PTC Therapeutics, Inc., priority 2008, dated 2014) come the findings set out here.

In this experiment the test system is Bmi-1. Put plainly: Sandwich ELISA Assay (Bmi-1 ELISA in HT-1080 cells). The format is cell-based, human. The method, then:
Cell Seeding and Compound Treatment (Day 1):
HT-1080 cells were seeded at 8000 cells/well (50 uL) in 96-well tissue culture plates. After the cells become adherent (3-4 hours), 2× diluted stocks of compounds in 50 uL DMEM containing 1% DMSO (final DMSO concentration was 0.5%) were added and the plates were incubated at 37° C. under 5% CO2 for 40-48 hours
ELISA Plate First Antibody Preparation (Day 2):
The First Antibody (Millipore Mouse, monoclonal to mouse Bmi-1, clone F6, catalog #05-637) diluted to 2 ug/mL in PBS was added (100 uL) to each well of a Nunc MaxiSorp 96-well ELISA plate. The plate was covered with a plate seal and allowed to stand overnight.
Cell Lysate Preparation (Day 3):
Fresh 1× Lysis buffer was prepared on the day of the assay as follows: 1 mM EDTA, 150 mM NaCl, 0.5% Triton-X 100, 10 mM NaF, 20 mM B-Glycerophosphate, 1 mM DTT (in PBS, pH 7.2-7.4) and 1×HALT protease inhibitor cocktail (Pierce #78410).
1× Lysis Buffer (40 uL) was added to each well and the plate was shaken for 5-10 minutes on an orbital shaker to allow cell lysis, then Diluent (1% BSA in PBS in 0.5% NP40) (100 uL) was added to each well.
The Bmi-1 standard curve was prepared in Diluent at the following concentrations of protein: 8000, 4000, 2000, 1000, 500, 250, 125, 0 pg/mL The Bmi-1 Recombinant Protein Standard (Novus Biologicals PCGF4 Recombinant Protein (P01), catalog #H00000648-P01) used in the standard curve was stored at −80° C., and on first thaw, diluted to 10 ug/uL in Blocking Buffer (1% BSA in PBS; BSA: Fisher Scientific Catalog #1600-100) before being aliquoted and refrozen at −80° C. Aliquots can be kept at 4° C. and reused after first thaw, but only for 1-2 weeks. The Bmi-1 Recombinant Protein Standard contains a GST-fusion tag and thus will show up on western blots around 70 Kda.
The prepared ELISA plate was washed 3× with Wash Buffer (0.05% Tween-20 in PBS). The final wash was removed from the plate and the plate was blotted dry on paper towels. Blocking Buffer (300 uL) (1% BSA in PBS) was added per well. The plate was covered with a plate seal and incubated at room temperature for 1 hour. The blocked plate was washed 3× with Wash Buffer, the final wash was removed and the plate was blotted dry on paper towels. The previously prepared samples and standards were added (at 100 uL/well) and the plate was covered with a plate seal and incubated at 4° C. overnight.
The prepared ELISA plate was removed from 4° C., incubated at room temperature for 30 minutes, then washed and blotted dry as previously described for Day 3. The Second Antibody (Cell Signaling Rabbit anti-Bmi-1, Cat#2830) diluted to 1:600 in Blocking Buffer was added (100 uL) to each well, except as needed for background control wells. The plate was covered with a plate seal and incubated for 1.5 hrs at room temperature.
The ELISA plate was washed and blotted dry as previously described. The Third Antibody (Cell Signaling HRP conjugated anti-rabbit IgG (CellSignaling, Cat#:7074) diluted to 1:300 in Blocking Buffer was added (100 uL) to each well, except as needed for background control wells. The plate was incubated for 1 hr at room temperature.
The plate was washed and blotted dry as previously described, then prepared TMB substrate (TMB substrate kit, Pierce catalog #34021) (prepared by mixing kit reagents 1:1) (100 uL) was added per well. The plate was incubated for 20-30 minutes at room temperature in the dark, then Stop Solution (2 M sulfuric acid in water) (50 uL) was added per well. The plates were read at OD450 (experimental) and OD570 (reference).
In turn, `CCOc1ccc(Nc2nc(-c3c(C)nc4ccc(Cl)cn34)cs2)cc1` [Cpd 88, 4-(6-chloro-2-methylimidazo[1,2-a]pyridin-3-yl)-N-(4-ethoxyphenyl)-1,3-thiazol-2-amine] displayed an IC50 of less than 500 nM.

`Cc1ccc(Nc2nc(-c3c(C)nc4ccc(Cl)cn34)cs2)cc1` [Cpd 89, 4-(6-chloro-2-methylimidazo[1,2-a]pyridin-3-yl)-N-(4-methylphenyl)-1,3-thiazol-2-amine]: the IC50 is less than 500 nM. The same measure for `CCc1ccc(Nc2nc(-c3c(C)nc4ccc(Cl)cn34)cs2)cc1` [Cpd 90, 4-(6-chloro-2-methylimidazo[1,2-a]pyridin-3-yl)-N-(4-ethylphenyl)-1,3-thiazol-2-amine]: less than 500 nM; for `Cc1nc2ccc(Cl)cn2c1-c1csc(Nc2ccc(C(C)C)cc2)n1` [Cpd 91, 4-(6-chloro-2-methylimidazo[1,2-a]pyridin-3-yl)-N-[4-(propan-2-yl)phenyl]-1,3-thiazol-2-amine]: less than 500 nM; for `Cc1nc2ccc(Cl)cn2c1-c1csc(Nc2ccc(O)cc2)n1` [Cpd 92, 4-{[4-(6-chloro-2-methylimidazo[1,2-a]pyridin-3-yl)-1,3-thiazol-2-yl]amino}phenol]: less than 500 nM. To `COCCOc1ccc(Nc2nc(-c3c(C)nc4ccc(Cl)cn34)cs2)cc1` [Cpd 93, 4-(6-chloro-2-methylimidazo[1,2-a]pyridin-3-yl)-N-[4-(2-methoxyethoxy)phenyl]-1,3-thiazol-2-amine] belongs less than 500 nM; to `Cc1nc2c(O)cccn2c1-c1csc(Nc2ccc3c(c2)OCO3)n1` [Cpd 94, 3-[2-(1,3-benzodioxol-5-ylamino)-1,3-thiazol-4-yl]-2-methylimidazo[1,2-a]pyridin-8-ol], less than 500 nM; to `COc1ccc(Nc2nc(-c3c(C)nc4ccc(Cl)cn34)cs2)cc1Cl` [Cpd 95, N-(3-chloro-4-methoxyphenyl)-4-(6-chloro-2-methylimidazo[1,2-a]pyridin-3-yl)-1,3-thiazol-2-amine], less than 500 nM.

`COc1ccc(Nc2nc(-c3c(C)nc4ccc(Cl)cn34)cs2)cc1F` [Cpd 96, 4-(6-chloro-2-methylimidazo[1,2-a]pyridin-3-yl)-N-(3-fluoro-4-methoxyphenyl)-1,3-thiazol-2-amine] gave an IC50 of less than 500 nM. To `CC(=O)Nc1ccc(Nc2nc(-c3c(C)nc4ccc(Cl)cn34)cs2)cc1` [Cpd 97, N-(4-{[4-(6-chloro-2-methylimidazo[1,2-a]pyridin-3-yl)-1,3-thiazol-2-yl]amino}phenyl)acetamide] belongs less than 500 nM; to `Cc1nc2ccc(Cl)cn2c1-c1csc(Nc2c(Cl)cccc2Cl)n1` [Cpd 98, 4-(6-chloro-2-methylimidazo[1,2-a]pyridin-3-yl)-N-(2,6-dichlorophenyl)-1,3-thiazol-2-amine], less than 500 nM; to `CC(=O)c1ccc(Nc2nc(-c3c(C)nc4ccc(Br)cn34)cs2)cc1` [Cpd 99, 1-(4-{[4-(6-bromo-2-methylimidazo[1,2-a]pyridin-3-yl)-1,3-thiazol-2-yl]amino}phenyl)ethanone], less than 500 nM. Molecule `Cc1nc2ccc(Br)cn2c1-c1csc(Nc2ccc(Cl)cc2)n1` [Cpd 100, 4-(6-bromo-2-methylimidazo[1,2-a]pyridin-3-yl)-N-(4-chlorophenyl)-1,3-thiazol-2-amine] yielded an IC50 of less than 500 nM. The same measure for `Cc1nc2ccc(Br)cn2c1-c1csc(Nc2ccc(I)cc2)n1` [Cpd 101, 4-(6-bromo-2-methylimidazo[1,2-a]pyridin-3-yl)-N-(4-iodophenyl)-1,3-thiazol-2-amine]: less than 500 nM; for `Cc1nc2ccc(Br)cn2c1-c1csc(Nc2ccc(Br)cc2)n1` [Cpd 102, 4-(6-bromo-2-methylimidazo[1,2-a]pyridin-3-yl)-N-(4-bromophenyl)-1,3-thiazol-2-amine]: less than 500 nM. The same measure for `COc1ccc(Nc2nc(-c3c(C)nc4ccc(Br)cn34)cs2)cc1Cl` [Cpd 103, 4-(6-bromo-2-methylimidazo[1,2-a]pyridin-3-yl)-N-(3-chloro-4-methoxyphenyl)-1,3-thiazol-2-amine]: less than 500 nM; for `COc1ccc(Nc2nc(-c3c(C)nc4ccc(Br)cn34)cs2)cc1F` [Cpd 104, 4-(6-bromo-2-methylimidazo[1,2-a]pyridin-3-yl)-N-(3-fluoro-4-methoxyphenyl)-1,3-thiazol-2-amine]: less than 500 nM. The same measure for `COc1ccc(Nc2nc(-c3cnc4ccc(Cl)cn34)cs2)cc1` [Cpd 105, 4-(6-chloroimidazo[1,2-a]pyridin-3-yl)-N-(4-methoxyphenyl)-1,3-thiazol-2-amine]: less than 500 nM; for `CN(C)c1ccc(Nc2nc(-c3cnc4ccc(Cl)cn34)cs2)cc1` [Cpd 106, N′-[4-(6-chloroimidazo[1,2-a]pyridin-3-yl)-1,3-thiazol-2-yl]-N,N-dimethylbenzene-1,4-diamine]: less than 500 nM.

In turn, `CC(=O)c1ccc(Nc2nc(-c3cnc4ccc(Cl)cn34)cs2)cc1` [Cpd 107, 1-(4-{[4-(6-chloroimidazo[1,2-a]pyridin-3-yl)-1,3-thiazol-2-yl]amino}phenyl)ethanone] returned an IC50 of less than 500 nM. To `Clc1ccc2ncc(-c3csc(Nc4ccc(I)cc4)n3)n2c1` [Cpd 108, 4-(6-chloroimidazo[1,2-a]pyridin-3-yl)-N-(4-iodophenyl)-1,3-thiazol-2-amine] belongs less than 500 nM; to `COc1ccc(Nc2nc(-c3cnc4ccc(Cl)cn34)cs2)cc1Cl` [Cpd 109, 4-(6-chloroimidazo[1,2-a]pyridin-3-yl)-N-(3-chloro-4-methoxyphenyl)-1,3-thiazol-2-amine], less than 500 nM; to `COc1ccc(Nc2nc(-c3cnc4ccc(Cl)cn34)cs2)cc1F` [Cpd 110, 4-(6-chloroimidazo[1,2-a]pyridin-3-yl)-N-(3-fluoro-4-methoxyphenyl)-1,3-thiazol-2-amine], less than 500 nM. To `Cc1nc2ccc(Cl)cn2c1-c1csc(Nc2ccc(Cl)c(Cl)c2)n1` [Cpd 111, 4-(6-chloro-2-methylimidazo[1,2-a]pyridin-3-yl)-N-(3,4-dichlorophenyl)-1,3-thiazol-2-amine] belongs less than 500 nM; to `Cc1nc2ccc(Cl)cn2c1-c1csc(Nc2ccc(C(C)(C)C)cc2)n1` [Cpd 112, N-(4-tert-butylphenyl)-4-(6-chloro-2-methylimidazo[1,2-a]pyridin-3-yl)-1,3-thiazol-2-amine], less than 500 nM; to `Cc1nc2ccccn2c1-c1ccnc(Nc2ccc(Cl)cc2)n1` [Cpd 113, N-(4-chlorophenyl)-4-(2-methylimidazo[1,2-a]pyridin-3-yl)pyrimidin-2-amine], less than 500 nM. To `Cc1nc2ccccn2c1-c1ccnc(Nc2ccc(Br)cc2)n1` [Cpd 114, N-(4-bromophenyl)-4-(2-methylimidazo[1,2-a]pyridin-3-yl)pyrimidin-2-amine] belongs less than 500 nM. In the case of `COc1ccc(Nc2nccc(-c3c(C)nc4ncccn34)n2)cc1` [Cpd 115, N-(4-methoxyphenyl)-4-(2-methylimidazo[1,2-a]pyrimidin-3-yl)pyrimidin-2-amine], the IC50 was less than 500 nM. On to `CCOc1ccc(Nc2nccc(-c3c(C)nc4ncccn34)n2)cc1` [Cpd 116, N-(4-ethoxyphenyl)-4-(2-methylimidazo[1,2-a]pyrimidin-3-yl)pyrimidin-2-amine], for which the concentration for half-maximal inhibition (IC50) was less than 500 nM. With `CC(=O)c1ccc(Nc2nccc(-c3c(C)nc4ccccn34)n2)cc1` [Cpd 117, 1-(4-{[4-(2-methylimidazo[1,2-a]pyridin-3-yl)pyrimidin-2-yl]amino}phenyl)ethanone], the IC50 was less than 500 nM. To `Cc1nc2ccccn2c1-c1ccnc(Nc2cccc(N(C)C)c2)n1` [Cpd 118, N,N-dimethyl-N′-[4-(2-methylimidazo[1,2-a]pyridin-3-yl)pyrimidin-2-yl]benzene-1,3-diamine] belongs less than 500 nM.
